Experiments:
AtCAT1 = target: T1, AtCAT1 (Arabidopsis thaliana, UniProt Q84MA5); assay: LC-MS/MS of PPT accumulated in overexpressing M. polymorpha versus Tak-1; conditions: whole plants, 100 µM PPT
T1 sequence (Q84MA5 2-594): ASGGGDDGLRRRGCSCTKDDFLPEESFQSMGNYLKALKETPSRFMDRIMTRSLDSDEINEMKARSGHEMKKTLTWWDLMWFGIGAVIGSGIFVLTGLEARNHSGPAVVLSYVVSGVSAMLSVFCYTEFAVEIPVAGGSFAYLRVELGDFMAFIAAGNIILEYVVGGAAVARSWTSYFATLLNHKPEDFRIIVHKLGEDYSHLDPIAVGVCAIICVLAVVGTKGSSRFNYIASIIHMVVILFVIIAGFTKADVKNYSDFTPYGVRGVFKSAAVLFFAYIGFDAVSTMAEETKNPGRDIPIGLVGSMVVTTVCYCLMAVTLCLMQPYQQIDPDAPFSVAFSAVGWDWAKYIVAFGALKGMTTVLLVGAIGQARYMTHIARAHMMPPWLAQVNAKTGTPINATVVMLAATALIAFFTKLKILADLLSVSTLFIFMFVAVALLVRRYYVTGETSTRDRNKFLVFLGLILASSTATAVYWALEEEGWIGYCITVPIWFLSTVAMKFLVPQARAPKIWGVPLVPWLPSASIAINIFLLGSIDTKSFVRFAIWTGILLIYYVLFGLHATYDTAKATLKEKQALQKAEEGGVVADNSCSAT

AtCAT5 = target: T2, AtCAT5 (Arabidopsis thaliana, UniProt O64759); assay: as above; conditions: whole plants, 100 µM PPT (time course at 1 mM PPT up to 48 h)
T2 sequence (O64759 1-569): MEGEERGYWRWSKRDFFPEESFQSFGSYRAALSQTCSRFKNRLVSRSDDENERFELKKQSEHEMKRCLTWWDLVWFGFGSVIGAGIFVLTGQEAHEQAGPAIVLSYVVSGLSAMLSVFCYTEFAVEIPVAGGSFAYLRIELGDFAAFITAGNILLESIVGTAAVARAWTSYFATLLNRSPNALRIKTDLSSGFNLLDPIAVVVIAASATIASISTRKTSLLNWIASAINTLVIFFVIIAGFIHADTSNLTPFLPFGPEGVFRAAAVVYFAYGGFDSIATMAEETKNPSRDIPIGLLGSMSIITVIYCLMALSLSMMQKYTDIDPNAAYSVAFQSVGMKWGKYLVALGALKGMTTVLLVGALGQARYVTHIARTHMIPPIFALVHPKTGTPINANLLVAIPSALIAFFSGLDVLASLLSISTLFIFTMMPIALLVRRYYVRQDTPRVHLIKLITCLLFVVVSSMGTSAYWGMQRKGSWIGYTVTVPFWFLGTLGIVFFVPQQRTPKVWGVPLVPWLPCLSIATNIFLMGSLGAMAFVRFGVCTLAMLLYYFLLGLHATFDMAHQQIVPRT

## CP(=O)(O)CC[C@H](N)C(=O)O [PPT, L-phosphinothricin]
AtCAT1
  PPT accumulation: Increased PPT contents in both AtCAT1ox and AtCAT5ox lines confirmed the successful mediation
AtCAT5
  PPT accumulation: Increased PPT contents in both AtCAT1ox and AtCAT5ox lines confirmed the successful mediation
